Measured values from article PMC3545186 (Biochemical Pharmacology, 2013).
Where two headings read alike, the source gives them in different places. Numbered stars: 1 amine (or outer) side, 2 acyl side, 3 side chain; on linkers, the order of the positions; unused ones are H or OH. Bridge positions count the residues as written; N and C are the ends. Square brackets hold non-standard residues; d marks the D form. Peptide text beside a SMILES is read from it. I, II: the chains in the order shown. Actinocin(9to1) = Cc1c2oc3c(C)ccc(C(=O)[*:1])c3nc-2c(C(=O)[*:2])c(N)c1=O; NMeV = CN[C@H](C(=O)O)C(C)C; Sar = CNCC(=O)O

Assay type: in vivo, mice
Conditions: for Brain peak area / Kidney concentration / Liver concentration: per gram of tissue
[1] = Abcb1a/1b−/− mice, 0.5 mg/kg i.v.
[2] = Abcb1a/1b−/− mice, 0.25 h, 0.5 mg/kg i.v.
[3] = Abcb1a/1b−/− mice, 0.5 h, 0.5 mg/kg i.v.
[4] = Abcb1a/1b−/− mice, 2 h, 0.5 mg/kg i.v.
[5] = Abcb1a/1b−/− mice, 6 h, 0.5 mg/kg i.v.
[6] = Abcc2−/− mice, 0.25 h, 0.5 mg/kg i.v.
[7] = Abcc2−/− mice, 0.5 h, 0.5 mg/kg i.v.
[8] = Abcc2−/− mice, 2 h, 0.5 mg/kg i.v.
[9] = Abcc2−/− mice, 6 h, 0.5 mg/kg i.v.
[10] = WT mice, 0.25 h, 0.5 mg/kg i.v.

**Q.** With `Cc1c2oc3c(C)ccc(C(=O)N[C@@H]4C(=O)N[C@H](C(C)C)C(=O)N5CCC[C@H]5C(=O)N(C)CC(=O)N(C)[C@@H](C(C)C)C(=O)O[C@@H]4C)c3nc-2c(C(=O)N[C@@H]2C(=O)N[C@H](C(C)C)C(=O)N3CCC[C@H]3C(=O)N(C)CC(=O)N(C)[C@@H](C(C)C)C(=O)O[C@@H]2C)c(N)c1=O` [Act D, actinomycin D] (I: T[dV]P[Sar][NMeV] / II: T[dV]P[Sar][NMeV]; ester I:1-I:C, II:1-II:C; linker I:N-II:N via Actinocin(9to1)) as the compound, how does the “higher brain AUC0–6 h in Abcb1a/1b−/− mice compared to WT” value (0.5 mg/kg i.v.) read?
**A.** 2.3 fold

**Q.** What about the “higher brain AUC0–6 h in Abcc2−/− mice compared to WT” value (0.5 mg/kg i.v.) of the same compound?
**A.** 1.3 fold

**Q.** And the “Brain AUC0–6 h (peak area)” value [1]?
**A.** 6802 pa/g h

**Q.** And the “Brain Cmax (peak area)” value [1]?
**A.** 1420 ± 521 pa

**Q.** What about the “Kidney AUC0–6 h” value [1] of the same compound?
**A.** 35,381 μg/L h

**Q.** And the “Kidney AUC0–∞” value [1]?
**A.** 46,701 μg/L h

**Q.** And the “Kidney Cmax” value [1]?
**A.** 13,207 ± 1025 μg/L

**Q.** And the “Liver AUC0–6 h” value [1]?
**A.** 4616 ng·h/mL

**Q.** What about the “Liver AUC0–∞” value [1] of the same compound?
**A.** 6594 ng·h/mL

**Q.** What about the “Liver Cmax” value [1] of the same compound?
**A.** 2323 ± 239 ng/mL

**Q.** What about the Brain peak area [2] of the same compound?
**A.** 1134 ± 635 pa

**Q.** And the Kidney concentration [2]?
**A.** 13,207 ± 1025 μg/L

**Q.** And the Liver concentration [2]?
**A.** 2323 ± 239 µg/L

**Q.** What about the Brain peak area [3] of the same compound?
**A.** 1420 ± 521 pa

**Q.** And the Kidney concentration [3]?
**A.** 13,163 ± 2521 μg/L

**Q.** What about the Liver concentration [3] of the same compound?
**A.** 1367 ± 133 µg/L

**Q.** And the Brain peak area [4]?
**A.** 912.7 ± 461 pa

**Q.** What about the Kidney concentration [4] of the same compound?
**A.** 5327 ± 1257 µg/L

**Q.** What about the Liver concentration [4] of the same compound?
**A.** 737 ± 172 µg/L

**Q.** What about the Brain peak area [5] of the same compound?
**A.** 1383 ± 439 pa

**Q.** What about the Kidney concentration [5] of the same compound?
**A.** 2957 ± 872 µg/L

**Q.** And the Liver concentration [5]?
**A.** 407 ± 9 µg/L

**Q.** And the “Brain AUC0–6 h (peak area)” value (Abcc2−/− mice, 0.5 mg/kg i.v.)?
**A.** 3785 pa/g h

**Q.** What about the “Brain Cmax (peak area)” value (Abcc2−/− mice, 0.5 mg/kg i.v.) of the same compound?
**A.** 1039 ± 181 pa

**Q.** And the “Kidney AUC0–6 h” value (Abcc2−/− mice, 0.5 mg/kg i.v.)?
**A.** 33,079 μg/L h

**Q.** What about the “Kidney AUC0–∞” value (Abcc2−/− mice, 0.5 mg/kg i.v.) of the same compound?
**A.** 48,799 μg/L h

**Q.** And the “Kidney Cmax” value (Abcc2−/− mice, 0.5 mg/kg i.v.)?
**A.** 13,107 ± 2318 μg/L

**Q.** And the “Liver AUC0–6 h” value (Abcc2−/− mice, 0.5 mg/kg i.v.)?
**A.** 4445 ng·h/mL

**Q.** What about the “Liver AUC0–∞” value (Abcc2−/− mice, 0.5 mg/kg i.v.) of the same compound?
**A.** 5516 ng·h/mL

**Q.** What about the “Liver Cmax” value (Abcc2−/− mice, 0.5 mg/kg i.v.) of the same compound?
**A.** 1540 ± 356 ng/mL

**Q.** What about the Brain peak area [6] of the same compound?
**A.** 972 ± 455 pa

**Q.** And the Kidney concentration [6]?
**A.** 13,107 ± 2318 μg/L

**Q.** And the Liver concentration [6]?
**A.** 1317 ± 302 µg/L

**Q.** What about the Brain peak area [7] of the same compound?
**A.** 1039 ± 181 pa

**Q.** What about the Kidney concentration [7] of the same compound?
**A.** 10,593 ± 944 μg/L

**Q.** And the Liver concentration [7]?
**A.** 1540 ± 356 µg/L

**Q.** And the Brain peak area [8]?
**A.** 424.3 ± 120 pa

**Q.** What about the Kidney concentration [8] of the same compound?
**A.** 4987 ± 161 µg/L

**Q.** What about the Liver concentration [8] of the same compound?
**A.** 787 ± 99 µg/L

**Q.** And the Brain peak area [9]?
**A.** 733 ± 470 pa

**Q.** And the Kidney concentration [9]?
**A.** 3410 ± 527 µg/L

**Q.** What about the Liver concentration [9] of the same compound?
**A.** 303 ± 128 µg/L

**Q.** What about the “Brain AUC0–6 h (peak area)” value (WT mice, 0.5 mg/kg i.v.) of the same compound?
**A.** 2943 pa/g h

**Q.** And the “Brain Cmax (peak area)” value (WT mice, 0.5 mg/kg i.v.)?
**A.** 1071 ± 217 pa

**Q.** And the “Kidney AUC0–6 h” value (WT mice, 0.5 mg/kg i.v.)?
**A.** 29,552 μg/L h

**Q.** And the “Kidney AUC0–∞” value (WT mice, 0.5 mg/kg i.v.)?
**A.** 35,754 μg/L h

**Q.** And the “Kidney Cmax” value (WT mice, 0.5 mg/kg i.v.)?
**A.** 13,323 ± 3960 μg/L

**Q.** What about the “Liver AUC0–6 h” value (WT mice, 0.5 mg/kg i.v.) of the same compound?
**A.** 4473 ng·h/mL

**Q.** And the “Liver AUC0–∞” value (WT mice, 0.5 mg/kg i.v.)?
**A.** 5387 ng·h/mL

**Q.** And the “Liver Cmax” value (WT mice, 0.5 mg/kg i.v.)?
**A.** 1810 ± 155 ng/mL

**Q.** What about the Brain peak area [10] of the same compound?
**A.** 1071 ± 217 pa

**Q.** And the Kidney concentration [10]?
**A.** 13,323 ± 3960 μg/L

**Q.** And the Liver concentration [10]?
**A.** 1810 ± 155 µg/L

**Q.** And the Brain peak area (WT mice, 0.5 h, 0.5 mg/kg i.v.)?
**A.** 775.3 ± 127 pa

**Q.** What about the Kidney concentration (WT mice, 0.5 h, 0.5 mg/kg i.v.) of the same compound?
**A.** 10,713 ± 2498 μg/L

**Q.** What about the Liver concentration (WT mice, 0.5 h, 0.5 mg/kg i.v.) of the same compound?
**A.** 1593 ± 167 µg/L

**Q.** What about the Brain peak area (WT mice, 2 h, 0.5 mg/kg i.v.) of the same compound?
**A.** 501 ± 28.9 pa

**Q.** What about the Kidney concentration (WT mice, 2 h, 0.5 mg/kg i.v.) of the same compound?
**A.** 4693 ± 415 µg/L

**Q.** What about the Liver concentration (WT mice, 2 h, 0.5 mg/kg i.v.) of the same compound?
**A.** 747 ± 165 µg/L

**Q.** And the Brain peak area (WT mice, 6 h, 0.5 mg/kg i.v.)?
**A.** 309 ± 156 pa

**Q.** What about the Kidney concentration (WT mice, 6 h, 0.5 mg/kg i.v.) of the same compound?
**A.** 1970 ± 150 µg/L

**Q.** And the Liver concentration (WT mice, 6 h, 0.5 mg/kg i.v.)?
**A.** 287 ± 40 µg/L

**Q.** What about the “Act D accumulation over 6 h in the kidneys higher than the liver” value (irrespective of transporter knockout genotype) of the same compound?
**A.** 6.6- to 7.7 fold
